# Activity calls are given as the source filed them. The rule behind the calls is not given here.
# Tests used:
# A-375 [1] = assay: Cell cycle arrest in human A375 cells assessed as increase in number of cells at G2/M phase at 0.5 to 2 uM incubated for 24 hrs by propidium iodide staining based flow cytometry; format: functional; conditions: dose 0.5-2 µM
# [2] = Cmax in ICR mouse at 20 mg/kg, ip by LC-MS/MS analysis; format: ADME, organism-based; parameters: route intraperitoneal, dose 20 mg/kg; conditions: in vivo
# [3] = molecular target: Cyclin-dependent kinase 2 (Homo sapiens) (UniProt P24941); assay: Inhibition of CDK2 in human A375 cells at 1 uM measured after 12 hr by DAPI staining based immunofluorescence analysis; format: cell-based; conditions: A-375
# HCT-116 [4] = assay: cells; format: functional; conditions: Homo sapiens, time 72 hrs, read-out: GI
# [5] = Cytotoxicity against mouse NIH/3T3 cells incubated for 72 hrs by CCK-8 assay; format: cell-based; conditions: NIH3T3, 72 h
# A-375 [6] = assay: cells; format: functional, cell-based; conditions: Homo sapiens, A-375, 72 h
# Description: Antiproliferative activity against human A375 cells assessed as inhibition of cell growth incubated for 72 hrs by CCK-8 assay
# [7] = Biovailability in ICR mouse at 20 mg/kg, ip; format: ADME, organism-based; conditions: in vivo
# Histone deacetylase 8 = molecular target: T1, Histone deacetylase 8 (Homo sapiens, UniProt Q9BY41); assay: Inhibition of human recombinant HDAC8 preincubated for 10 mins followed by substrate addition measured after 30 mins by fluorescent plate reader analysis
# T1 sequence (Q9BY41 whole entry): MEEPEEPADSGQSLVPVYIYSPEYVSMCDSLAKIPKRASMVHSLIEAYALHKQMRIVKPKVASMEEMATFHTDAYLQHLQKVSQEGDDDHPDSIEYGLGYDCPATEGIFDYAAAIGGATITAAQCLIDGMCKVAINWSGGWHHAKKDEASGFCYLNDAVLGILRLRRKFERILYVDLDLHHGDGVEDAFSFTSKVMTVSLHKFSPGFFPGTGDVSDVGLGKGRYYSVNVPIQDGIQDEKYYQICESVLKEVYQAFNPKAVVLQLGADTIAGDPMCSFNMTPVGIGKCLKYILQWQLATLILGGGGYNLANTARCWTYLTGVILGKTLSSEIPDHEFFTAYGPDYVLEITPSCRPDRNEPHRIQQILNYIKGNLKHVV
# A-375 [8] = assay: Induction of apoptosis in human A375 cells assessed as number of apoptotic cells at 2 uM incubated for 48 hrs by annexin V-FITC/PI based flow cytometric analysis relative to control; format: functional
# [9] = Tmax in ICR mouse at 20 mg/kg, ip by LC-MS/MS analysis; format: ADME, organism-based; conditions: in vivo
# SMMC-7721 = assay: cells; format: functional, cell-based; conditions: Homo sapiens, SMMC-7721, 72 h
# Description: Antiproliferative activity against human SMMC7721 cells assessed as inhibition of cell growth incubated for 72 hrs by CCK-8 assay
# [10] = MRT (0 to infinity) in ICR mouse at 20 mg/kg, ip by LC-MS/MS analysis; format: ADME, organism-based; conditions: in vivo
# CDK6/cyclin D3 = CDK6/cyclin D3 (Homo sapiens, UniProt Q00534); assay: Inhibition of recombinant human full length CDK6/cyclin D3 incubated for 10 mins by ADP-Glo reagent assay; format: protein-complex assay
# HCT-116 [11] = assay: cells; format: functional; conditions: Homo sapiens, time 72 hrs, read-out: GI; remark: listed apart in the source
# HeLa [12] = assay: cells; format: functional, cell-based; conditions: Homo sapiens, 72 h
# Description: Antiproliferative activity against human Hela cells assessed as inhibition of cell growth incubated for 72 hrs by CCK-8 assay
# [13] = molecular target: Histone deacetylase 3/NCoR1 (Homo sapiens, UniProt O15379); assay: Inhibition of human recombinant HDAC3/NCOR1 complex preincubated for 10 mins followed by addition of substrate fluor De Lys SIRT1 deacetylase measured after 30 mins by fluorescent plate reader analysis; format: protein-complex assay
# HCT-116 [14] = assay: cells; format: functional, cell-based; conditions: Homo sapiens, HCT-116, 72 h
# Description: Antiproliferative activity against human HCT116 cells assessed as inhibition of cell growth incubated for 72 hrs by CCK-8 assay
# HeLa [15] = assay: Cell cycle arrest in human HeLa cells assessed as increase in number of cells at G2/M phase at 0.5 to 2 uM incubated for 24 hrs by propidium iodide staining based flow cytometry; format: functional; conditions: dose 0.5-2 µM
# Histone deacetylase 2 = Histone deacetylase 2 (Homo sapiens, UniProt Q92769); assay: Inhibition of human recombinant HDAC2 preincubated for 10 mins followed by addition of substrate fluor De Lys green measured after 30 mins by fluorescent plate reader analysis
# HCT-116 [16] = assay: Cell cycle arrest in human HCT116 cells assessed as increase in number of cells at G2/M phase at 0.5 to 2 uM incubated for 24 hrs by propidium iodide staining based flow cytometry; format: functional; conditions: dose 0.5-2 µM
# NCI-H460 [17] = assay: Cell cycle arrest in human H460 cells assessed as increase in number of cells at G2/M phase at 0.5 to 2 uM incubated for 24 hrs by propidium iodide staining based flow cytometry; format: functional; conditions: dose 0.5-2 µM
# NCI-H460 [18] = assay: cells; format: functional; conditions: Homo sapiens, time 72 hrs, read-out: GI
# NCI-H460 [19] = assay: Induction of apoptosis in human H460 cells assessed as number of apoptotic cells at 0.5 to 2 uM incubated for 48 hrs by annexin V-FITC/PI based flow cytometric analysis; format: functional, cell-based; conditions: dose 0.5-2 µM
# HeLa [20] = assay: Induction of apoptosis in human HeLa cells assessed as number of apoptotic cells at 0.5 to 2 uM incubated for 48 hrs by annexin V-FITC/PI based flow cytometric analysis; format: functional, cell-based; conditions: dose 0.5-2 µM
# A-375 [21] = assay: Induction of ROS generation in human A375 cells at 1 uM measured after 24 hrs by fluorescence microscopic analysis
# [22] = molecular target: Cyclin-dependent kinase 4/cyclin D1 (Homo sapiens, UniProt P11802); assay: Inhibition of recombinant human full length CDK4/cyclin D1 expressed in Sf9 cells incubated for 10 mins by ADP-Glo reagent assay
# [23] = Half life in ICR mouse at 20 mg/kg, ip by LC-MS/MS analysis; format: ADME, organism-based; conditions: in vivo
# NCI-H460 [24] = assay: Antimigratory activity against human H460 cells assessed as inhibition of cell migration at 0.5 uM measured after 48 hrs by cell scratch assay; format: functional, cell-based
# [25] = molecular target: Cyclin-dependent kinase 7/ cyclin H (Homo sapiens, UniProt P50613); assay: Inhibition of recombinant human full length CDK7/cyclin H1 expressed in Sf9 cells incubated for 10 mins by ADP-Glo reagent assay
# NCI-H460 [26] = assay: cells; format: functional; conditions: Homo sapiens, time 72 hrs, read-out: GI; remark: listed apart in the source
# Histone deacetylase 1 = Histone deacetylase 1 (Homo sapiens, UniProt Q13547); assay: Inhibition of human recombinant HDAC1 preincubated for 10 mins followed by addition of substrate fluor De Lys SIRT1 deacetylase measured after 30 mins by fluorescent plate reader analysis
# HCT-116 [27] = assay: Induction of apoptosis in human HCT116 cells assessed as number of apoptotic cells at 2 uM incubated for 48 hrs by annexin V-FITC/PI based flow cytometric analysis relative to control; format: functional
# [28] = molecular target: Histone deacetylase (Homo sapiens) (UniProt Q13547+O15379+Q9UBN7+Q92769+Q9UQL6+Q8WUI4+Q9BY41+Q96DB2+P56524+Q9UKV0+Q969S8); assay: Inhibition of HDAC in human A375 cells assessed as increase in acetylation of H3K9 at 1 uM measured after 12 hr by DAPI staining based immunofluorescence analysis; format: cell-based; conditions: A-375
# CDK1/Cyclin A = CDK1/Cyclin A (Homo sapiens, UniProt P06493); assay: Inhibition of recombinant human full length CDK1/cyclin A2 expressed in Sf9 cells incubated for 10 mins by ADP-Glo reagent assay
# Histone deacetylase 3/NCoR1, sequence (O15379 whole entry): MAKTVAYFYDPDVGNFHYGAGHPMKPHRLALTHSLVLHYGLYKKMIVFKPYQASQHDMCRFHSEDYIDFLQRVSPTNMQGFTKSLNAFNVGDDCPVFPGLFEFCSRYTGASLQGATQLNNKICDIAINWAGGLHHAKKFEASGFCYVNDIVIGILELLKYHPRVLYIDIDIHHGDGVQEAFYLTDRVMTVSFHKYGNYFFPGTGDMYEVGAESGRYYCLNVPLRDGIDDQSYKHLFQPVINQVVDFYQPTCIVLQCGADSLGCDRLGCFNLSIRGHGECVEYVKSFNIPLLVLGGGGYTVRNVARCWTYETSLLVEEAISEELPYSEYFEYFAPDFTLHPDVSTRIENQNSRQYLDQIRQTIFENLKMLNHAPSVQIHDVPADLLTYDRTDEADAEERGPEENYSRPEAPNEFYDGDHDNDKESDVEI
# Histone deacetylase 3/NCoR1, sequence (O75376 whole entry, further chain): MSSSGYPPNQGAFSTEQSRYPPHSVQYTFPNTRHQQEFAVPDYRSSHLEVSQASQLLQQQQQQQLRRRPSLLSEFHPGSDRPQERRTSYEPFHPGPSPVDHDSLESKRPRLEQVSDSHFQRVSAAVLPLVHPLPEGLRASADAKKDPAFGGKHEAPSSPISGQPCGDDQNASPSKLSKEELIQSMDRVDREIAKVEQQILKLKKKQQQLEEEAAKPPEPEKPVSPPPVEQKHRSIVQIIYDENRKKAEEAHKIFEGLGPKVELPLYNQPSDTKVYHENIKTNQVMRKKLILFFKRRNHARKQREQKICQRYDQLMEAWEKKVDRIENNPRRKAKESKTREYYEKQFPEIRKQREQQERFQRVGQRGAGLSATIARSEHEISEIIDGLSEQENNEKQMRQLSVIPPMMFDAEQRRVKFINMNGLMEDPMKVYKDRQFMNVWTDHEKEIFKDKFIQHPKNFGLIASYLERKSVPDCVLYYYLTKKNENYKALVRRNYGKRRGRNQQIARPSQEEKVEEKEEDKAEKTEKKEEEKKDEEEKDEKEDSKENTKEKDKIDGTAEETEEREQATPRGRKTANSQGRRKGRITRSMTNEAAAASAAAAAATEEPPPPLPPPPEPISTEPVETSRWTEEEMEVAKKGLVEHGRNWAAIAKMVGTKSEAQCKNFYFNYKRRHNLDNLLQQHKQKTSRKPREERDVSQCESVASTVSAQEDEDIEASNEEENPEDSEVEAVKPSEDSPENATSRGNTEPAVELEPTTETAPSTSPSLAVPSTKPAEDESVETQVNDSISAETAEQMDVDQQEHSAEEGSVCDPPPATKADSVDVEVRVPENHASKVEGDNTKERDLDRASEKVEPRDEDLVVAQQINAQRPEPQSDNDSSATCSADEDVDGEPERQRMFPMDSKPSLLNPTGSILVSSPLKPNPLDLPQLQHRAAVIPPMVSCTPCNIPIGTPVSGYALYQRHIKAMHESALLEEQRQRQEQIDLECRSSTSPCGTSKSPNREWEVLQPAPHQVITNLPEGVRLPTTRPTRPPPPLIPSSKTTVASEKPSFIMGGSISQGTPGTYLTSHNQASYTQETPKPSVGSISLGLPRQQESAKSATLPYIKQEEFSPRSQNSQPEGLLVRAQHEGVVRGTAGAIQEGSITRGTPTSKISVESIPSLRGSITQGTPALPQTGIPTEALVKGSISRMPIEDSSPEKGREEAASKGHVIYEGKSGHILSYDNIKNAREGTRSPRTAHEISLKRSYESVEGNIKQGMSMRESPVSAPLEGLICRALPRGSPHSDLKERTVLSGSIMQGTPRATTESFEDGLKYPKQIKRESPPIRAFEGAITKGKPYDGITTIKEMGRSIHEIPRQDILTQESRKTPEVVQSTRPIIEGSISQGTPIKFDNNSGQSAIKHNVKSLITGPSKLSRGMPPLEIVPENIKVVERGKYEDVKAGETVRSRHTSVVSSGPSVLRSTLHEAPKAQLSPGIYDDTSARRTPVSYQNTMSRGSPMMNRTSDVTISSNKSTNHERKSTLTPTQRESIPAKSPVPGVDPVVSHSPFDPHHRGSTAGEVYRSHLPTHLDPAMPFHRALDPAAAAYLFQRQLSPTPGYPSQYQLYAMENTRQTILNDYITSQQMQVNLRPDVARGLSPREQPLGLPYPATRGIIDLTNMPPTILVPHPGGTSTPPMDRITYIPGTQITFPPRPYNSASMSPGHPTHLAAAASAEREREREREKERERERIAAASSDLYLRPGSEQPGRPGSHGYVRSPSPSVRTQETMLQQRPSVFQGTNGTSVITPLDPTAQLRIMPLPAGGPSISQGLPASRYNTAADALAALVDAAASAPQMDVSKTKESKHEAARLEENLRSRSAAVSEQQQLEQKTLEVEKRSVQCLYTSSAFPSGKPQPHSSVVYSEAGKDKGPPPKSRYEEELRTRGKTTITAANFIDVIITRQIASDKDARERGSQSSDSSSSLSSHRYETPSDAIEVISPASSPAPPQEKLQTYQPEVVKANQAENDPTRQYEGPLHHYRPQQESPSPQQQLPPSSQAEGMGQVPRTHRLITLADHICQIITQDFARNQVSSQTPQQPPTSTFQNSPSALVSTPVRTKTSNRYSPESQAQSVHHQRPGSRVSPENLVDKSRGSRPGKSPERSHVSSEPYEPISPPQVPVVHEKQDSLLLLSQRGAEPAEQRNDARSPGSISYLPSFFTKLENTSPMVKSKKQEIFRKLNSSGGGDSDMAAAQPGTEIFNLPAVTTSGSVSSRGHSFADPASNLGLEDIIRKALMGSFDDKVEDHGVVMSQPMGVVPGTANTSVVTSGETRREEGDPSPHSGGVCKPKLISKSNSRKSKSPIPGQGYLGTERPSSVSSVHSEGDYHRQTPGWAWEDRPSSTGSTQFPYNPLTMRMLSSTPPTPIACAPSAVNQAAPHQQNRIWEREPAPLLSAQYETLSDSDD
# Cyclin-dependent kinase 7/ cyclin H, sequence (P51946 whole entry): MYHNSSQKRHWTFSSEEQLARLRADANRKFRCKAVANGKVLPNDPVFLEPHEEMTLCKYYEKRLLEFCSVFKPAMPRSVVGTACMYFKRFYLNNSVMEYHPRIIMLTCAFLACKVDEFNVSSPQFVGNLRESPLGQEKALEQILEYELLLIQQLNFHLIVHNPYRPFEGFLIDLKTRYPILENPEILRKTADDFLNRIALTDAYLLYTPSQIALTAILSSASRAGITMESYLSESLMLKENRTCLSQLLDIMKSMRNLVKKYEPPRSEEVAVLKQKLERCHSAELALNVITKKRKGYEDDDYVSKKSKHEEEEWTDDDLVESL
# Cyclin-dependent kinase 7/ cyclin H, sequence (P50613 whole entry): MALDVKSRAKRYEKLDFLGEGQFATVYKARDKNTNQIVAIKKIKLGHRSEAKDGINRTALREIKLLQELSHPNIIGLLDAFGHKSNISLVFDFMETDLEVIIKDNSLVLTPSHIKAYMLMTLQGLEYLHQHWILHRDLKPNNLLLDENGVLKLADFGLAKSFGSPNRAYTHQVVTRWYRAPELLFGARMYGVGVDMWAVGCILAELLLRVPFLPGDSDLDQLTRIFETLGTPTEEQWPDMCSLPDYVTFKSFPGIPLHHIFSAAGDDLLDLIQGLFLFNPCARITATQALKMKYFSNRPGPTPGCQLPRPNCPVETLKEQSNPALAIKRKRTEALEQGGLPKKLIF
# CDK6/cyclin D3, sequence (P30281 whole entry): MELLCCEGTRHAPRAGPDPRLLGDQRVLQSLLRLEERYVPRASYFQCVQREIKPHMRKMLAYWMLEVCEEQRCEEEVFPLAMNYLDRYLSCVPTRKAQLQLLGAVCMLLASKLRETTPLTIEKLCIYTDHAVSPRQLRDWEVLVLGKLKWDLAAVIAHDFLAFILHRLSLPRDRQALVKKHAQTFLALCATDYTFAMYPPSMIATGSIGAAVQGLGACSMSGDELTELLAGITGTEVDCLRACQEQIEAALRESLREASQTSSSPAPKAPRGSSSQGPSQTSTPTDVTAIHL
# CDK6/cyclin D3, sequence (Q00534 whole entry): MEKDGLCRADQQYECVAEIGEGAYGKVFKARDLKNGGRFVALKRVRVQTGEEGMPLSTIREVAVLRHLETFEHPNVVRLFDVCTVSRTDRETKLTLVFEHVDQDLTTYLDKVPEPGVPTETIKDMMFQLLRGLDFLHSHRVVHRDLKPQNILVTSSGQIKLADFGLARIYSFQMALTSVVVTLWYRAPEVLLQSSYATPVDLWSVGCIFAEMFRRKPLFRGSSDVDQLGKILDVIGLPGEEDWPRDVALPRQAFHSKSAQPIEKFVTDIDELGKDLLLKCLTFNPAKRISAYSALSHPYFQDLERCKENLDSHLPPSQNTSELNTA
# Histone deacetylase 2, sequence (Q92769 whole entry): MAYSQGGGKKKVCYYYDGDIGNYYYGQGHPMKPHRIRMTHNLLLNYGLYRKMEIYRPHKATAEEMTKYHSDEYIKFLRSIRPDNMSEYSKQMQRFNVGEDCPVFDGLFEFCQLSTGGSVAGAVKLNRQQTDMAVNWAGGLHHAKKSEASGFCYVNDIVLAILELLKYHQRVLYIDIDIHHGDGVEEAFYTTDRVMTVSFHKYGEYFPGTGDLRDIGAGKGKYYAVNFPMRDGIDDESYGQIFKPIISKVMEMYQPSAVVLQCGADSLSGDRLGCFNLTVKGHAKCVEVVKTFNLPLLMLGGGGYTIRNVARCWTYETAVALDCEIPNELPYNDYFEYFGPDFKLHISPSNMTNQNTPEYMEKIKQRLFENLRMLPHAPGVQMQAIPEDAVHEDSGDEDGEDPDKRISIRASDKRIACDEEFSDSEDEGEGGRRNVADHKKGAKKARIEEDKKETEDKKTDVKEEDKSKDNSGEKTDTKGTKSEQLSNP
Cmax [2] [ng/mL],inhibition [3],IC50 (A-375 [6]) [nM],bioavailability [7] [%],IC50 (Histone deacetylase 8) [nM],Tmax [9] [min],IC50 (SMMC-7721) [µM],MRT inf [10] [h],IC50 (CDK6/cyclin D3) [nM],IC50 (HeLa [12]) [nM],IC50 [13] [nM],IC50 (HCT-116 [14]) [nM],IC50 (Histone deacetylase 2) [nM],Compound,Activity (A-375 [1]),inhibition of growth at 2 µM (HCT-116 [4]) [%],IC50 [5] [µM],Activity (A-375 [8]) [%],inhibition of growth at 8 µM (HCT-116 [11]) [%],Activity (HeLa [15]),Activity (HCT-116 [16]),further results
2170,Active,1600,27.8,> 1000,60,5.22,2.36,> 1000,3150,> 1000,1450,0.24,Nc1ccccc1NC(=O)Cc1ccc(NC(=O)c2n[nH]cc2NC(=O)c2c(Cl)cccc2Cl)cc1,Active,72.9,4.64,73.08,78,Active,Active,Activity (NCI-H460 [17]): Active; inhibition of growth at 8 µM (NCI-H460 [18]): 67.4%; Activity (NCI-H460 [19]): Active; Activity (HeLa [20]): Active; Activity (A-375 [21]): Active; IC50 [22]: > 1000 nM; t1/2 [23]: 97.8 min; inhibition (NCI-H460 [24]): Active; IC50 [25]: > 1000 nM; inhibition of growth at 2 µM (NCI-H460 [26]): 57.3%; IC50 (Histone deacetylase 1): 240 nM; Activity (HCT-116 [27]): 77.1%; inhibition [28]: Active; IC50 (CDK1/Cyclin A): 12.6 nM
7570,Active,1200,63.6,> 1000,120,7.76,3.31,> 1000,1830,45,710,0.25,Nc1ccccc1NC(=O)c1ccc(CNC(=O)c2n[nH]cc2NC(=O)c2c(Cl)cccc2Cl)cc1,Active,73.8,4.47,97.22,73.8,Active,Active,Activity (NCI-H460 [17]): Active; inhibition of growth at 8 µM (NCI-H460 [18]): 78.3%; Activity (NCI-H460 [19]): Active; Activity (HeLa [20]): Active; Activity (A-375 [21]): Active; IC50 [22]: > 1000 nM; t1/2 [23]: 157 min; inhibition (NCI-H460 [24]): Active; IC50 [25]: > 1000 nM; inhibition of growth at 2 µM (NCI-H460 [26]): 32.8%; IC50 (Histone deacetylase 1): 6.4 nM; Activity (HCT-116 [27]): 60.6%; inhibition [28]: Active; IC50 (CDK1/Cyclin A): 8.63 nM

# Reference: ChEMBL document CHEMBL4680185, “Discovery of novel cyclin-dependent kinase (CDK) and histone deacetylase (HDAC) dual inhibitors with potent in vitro and in vivo anticancer activity” (Eur J Med Chem, 2020)
